Measurements from patent US20230102554A1 (GB002, INC., priority 2019, published 2023).

Tests used:
[1] = molecular target: T1, Human PDGFRβ, cytoplasmic domain (GST-PDGFRβ) (Homo sapiens, UniProt P09619); test: Human PDGFRβ biochemical inhibition assay (off-chip Mobility Shift Assay)
T1 construct: made in house
In short: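 GST-tagged cytoplasmic domain (aa 557-1106) from baculovirus was incubated 1 h at room temperature with compound, CSKtide, ATP at Km and Mg²⁺ in HEPES buffer, pH 7.5. Phosphorylated and unphosphorylated peptide were separated by off-chip mobility shift, and the product ratio P/(P+S) gave percent inhibition.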

[2] = molecular target: T2, Human PDGFRα, cytoplasmic domain (GST-PDGFRα) (Homo sapiens, UniProt P16234); test: Human PDGFRα biochemical inhibition assay (off-chip Mobility Shift Assay)
T2 construct: made in house
T2 sequence (P16234 550-1089 T674I): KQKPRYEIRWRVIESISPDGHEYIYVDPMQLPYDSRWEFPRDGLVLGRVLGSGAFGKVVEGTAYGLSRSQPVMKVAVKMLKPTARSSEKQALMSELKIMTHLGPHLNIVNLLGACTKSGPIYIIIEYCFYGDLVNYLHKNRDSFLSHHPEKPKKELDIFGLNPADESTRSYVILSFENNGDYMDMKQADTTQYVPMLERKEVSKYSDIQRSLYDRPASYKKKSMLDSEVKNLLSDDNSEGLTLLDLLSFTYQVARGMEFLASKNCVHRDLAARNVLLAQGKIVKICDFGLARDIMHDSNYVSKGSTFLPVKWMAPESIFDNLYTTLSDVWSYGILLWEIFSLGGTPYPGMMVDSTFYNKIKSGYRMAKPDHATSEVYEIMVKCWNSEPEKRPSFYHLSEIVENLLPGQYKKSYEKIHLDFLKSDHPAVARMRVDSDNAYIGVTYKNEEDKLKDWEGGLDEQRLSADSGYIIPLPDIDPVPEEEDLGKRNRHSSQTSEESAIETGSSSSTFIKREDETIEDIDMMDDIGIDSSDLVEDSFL

T1 sequence (P09619 with tags, fused parts or gaps): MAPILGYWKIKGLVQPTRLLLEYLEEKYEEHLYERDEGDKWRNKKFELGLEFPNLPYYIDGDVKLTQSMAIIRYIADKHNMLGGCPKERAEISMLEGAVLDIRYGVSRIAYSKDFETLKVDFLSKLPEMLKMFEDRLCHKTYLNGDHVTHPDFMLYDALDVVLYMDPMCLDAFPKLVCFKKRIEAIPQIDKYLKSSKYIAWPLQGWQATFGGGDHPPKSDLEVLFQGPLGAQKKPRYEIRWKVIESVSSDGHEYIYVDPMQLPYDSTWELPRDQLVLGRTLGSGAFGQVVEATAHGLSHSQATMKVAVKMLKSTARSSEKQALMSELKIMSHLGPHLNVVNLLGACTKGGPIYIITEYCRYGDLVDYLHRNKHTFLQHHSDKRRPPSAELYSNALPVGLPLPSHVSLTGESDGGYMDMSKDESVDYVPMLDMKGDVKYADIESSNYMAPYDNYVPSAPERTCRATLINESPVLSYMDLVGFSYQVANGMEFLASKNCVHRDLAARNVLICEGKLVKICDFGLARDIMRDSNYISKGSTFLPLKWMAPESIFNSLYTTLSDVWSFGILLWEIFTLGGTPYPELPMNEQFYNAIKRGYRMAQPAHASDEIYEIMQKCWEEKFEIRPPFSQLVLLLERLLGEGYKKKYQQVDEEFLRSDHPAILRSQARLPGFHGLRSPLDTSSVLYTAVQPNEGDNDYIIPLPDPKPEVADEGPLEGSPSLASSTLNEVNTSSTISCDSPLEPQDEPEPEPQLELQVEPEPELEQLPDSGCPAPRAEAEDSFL

Structure (SMILES)	IC50 [1]	IC50 [2]
COc1ccc(-n2ccc3ncc(N[C@@H](C)c4cccc(NC(=O)c5cncc(C)c5)c4)nc32)cc1OC [Compound 87, (S)-N-(3-(1-((5-(3,4-dimethoxyphenyl)-5H-pyrrolo [2,3-b]|pyrazin-3-yl)amino)ethyl)phenyl)-5-methylnicotinamide]	< 300 nM	< 300 nM
CCn1cc2ncc(N[C@@H](C)c3cccc(NC(=O)c4ccc(Cl)c(C)c4)c3)nc2n1 [Compound 345, (S)-4-chloro-N-(3-(1-((2-ethyl-2H-pyrazolo[3,4-b]pyrazin-6-yl)amino)ethyl)phenyl)-3-methylbenzamide]	< 300 nM	< 300 nM
COc1ccc2ncc(N[C@@H](C)c3cccc(NC(=O)c4cncc(C)c4)c3)nc2c1 [Compound 32, (S)-N-(3-(1-((7-methoxyquinoxalin-2-yl)amino)ethyl)phenyl)-5-methylnicotinamide]	< 300 nM	< 300 nM
C[C@H](Nc1cnc2cn(C3CC3)nc2n1)c1cc(NC(=O)c2cnc(C(F)(F)F)s2)ccc1F [Compound 399, (S)-N-(3-(1-((2-cyclopropyl-2H-pyrazolo[3,4-b]pyrazin-6-yl)amino)ethyl)-4-fluorophenyl)-2-(trifluoromethyl)thiazole-5-carboxamide]	< 300 nM	< 300 nM
Cc1cncc(C(=O)Nc2cccc([C@H](C)Nc3cnn4ccc(-c5cnn(C)c5)cc34)c2)c1 [Compound 745, (S)-5-methyl-N-(3-(1-((5-(1-methyl-1H-pyrazol-4-yl)pyrazolo[1,5-a]pyridin-3-yl)amino)ethyl)phenyl) nicotinamide]	≥ 1000 nM	≥ 1000 nM
Cc1cc(C(=O)Nc2cccc([C@H](C)Nc3cnc4cnn(C)c4n3)c2)cnc1N1CCN(C)CC1 [Compound 195, (S)-5-methyl-N-(3-(1-((1-methyl-1H-pyrazolo[3,4-b]pyrazin-6-yl)amino)ethyl)phenyl)-6-(4-methylpiperazin-1-yl)nicotinamide]	< 300 nM	< 300 nM
Cc1cncc(C(=O)Nc2cccc([C@H](C)Nc3cnc4ccc(C5CC5)cc4n3)c2)c1 [Compound 41, (S)-N-(3-(1-((7-cyclopropylquinoxalin-2-yl)amino)ethyl)phenyl)-5-methylnicotinamide]	< 300 nM	< 300 nM
CCn1cc2ncc(N[C@@H](C)c3cccc(NC(=O)c4ccc(CN5CC[C@H](F)C5)c(C)c4)c3)nc2n1 [Compound 493, N-(3-((S)-1-((2-ethyl-2H-pyrazolo[3,4-b]pyrazin-6-yl)amino)ethyl)phenyl)-4-(((S)-3-fluoropyrrolidin-1-yl)methyl)-3-methylbenzamide]	< 300 nM	< 300 nM
CCn1cc2ncc(N[C@@H](C)c3cccc(NC(=O)c4ccc(OC(F)(F)F)nc4)c3)nc2n1 [Compound 282, (S)-N-(3-(1-((2-ethyl-2H-pyrazolo[3,4-b]pyrazin-6-yl)amino)ethyl)phenyl)-6-(trifluoromethoxy)nicotinamide]	300 to 1000 nM	< 300 nM
CCn1cc2ncc(N[C@@H](C)c3cccc(NC(=O)c4ccc(N5CCCC5)c(Cl)c4)c3)nc2n1 [Compound 389, (S)-3-chloro-N-(3-(1-((2-ethyl-2H-pyrazolo[3,4-b]pyrazin-6-yl)amino)ethyl)phenyl)-4-(pyrrolidin-1-yl)benzamide]	< 300 nM	< 300 nM
CCn1cc2ncc(N[C@@H](C)c3cc(NC(=O)Cc4ccc(C5CC5)cn4)ccc3F)nc2n1 [Compound 655, (S)-2-(5-cyclopropylpyridin-2-yl)-N-(3-(1-((2-ethyl-2H-pyrazolo[3,4-b]pyrazin-6-yl)amino)ethyl)-4-fluorophenyl) acetamide]	≥ 1000 nM	< 300 nM
CCn1cc2ncc(N[C@@H](C)c3cc(NC(=O)Cc4ccc(C)cn4)ccc3C)nc2n1 [Compound 660, (S)-N-(3-(1-((2-ethyl-2H-pyrazolo[3,4-b]pyrazin-6-yl)amino)ethyl)-4-methylphenyl)-2-(5-methylpyridin-2-yl) acetamide]	300 to 1000 nM	< 300 nM
CCn1cc2ncc(N[C@@H](C)c3cc(NC(=O)c4ccc(N5CCCC5)nc4)ccc3F)nc2n1 [Compound 320, (S)-N-(3-(1-((2-ethyl-2H-pyrazolo[3,4-b]pyrazin-6-yl)amino)ethyl)-4-fluorophenyl)-6-(pyrrolidin-1-yl)nicotinamide]	< 300 nM	< 300 nM
Cc1cncc(C(=O)Nc2cc(F)cc(C(C)Nc3cnc4cnn(C)c4n3)c2)c1 (stereo not drawn) [Compound 170, N-(3-fluoro-5-(1-((1-methyl-1H-pyrazolo[3,4-b]pyrazin-6-yl)amino)ethyl)phenyl)-5-methylnicotinamide]	300 to 1000 nM	< 300 nM
CCOc1ccc(C(=O)Nc2cccc([C@H](C)Nc3cnc4[nH]cc(C)c4n3)c2)cn1 [Compound 570, (S)-6-ethoxy-N-(3-(1-((7-methyl-5H-pyrrolo[2,3-b]pyrazin-2-yl)amino)ethyl)phenyl)nicotinamide]	< 300 nM	< 300 nM

The remaining lines, values ahead:

IC50 [1]	IC50 [2]	Structure (SMILES)
≥ 1000 nM	300 to 1000 nM	CC[C@H](Nc1cnc2cn(CC)nc2n1)c1cccc(NC(=O)c2cncc(C)c2)c1 [Compound 408, (S)-N-(3-(1-((2-ethyl-2H-pyrazolo[3,4-b]pyrazin-6-yl)amino)propyl)phenyl)-5-methylnicotinamide]
< 300 nM	< 300 nM	Cc1cncc(C(=O)Nc2cccc([C@H](C)Nc3cnc4[nH]c(C5CC5)nc4c3)c2)c1 [Compound 601, (S)-N-(3-(1-((2-cyclopropyl-3H-imidazo[4,5-6]pyridin-6-yl)amino)ethyl)phenyl)-5-methylnicotinamide]
300 to 1000 nM	< 300 nM	CCn1cc2ncc(N[C@@H](C)c3cccc(NC(=O)c4cnc(N5CCOCC5)s4)c3)nc2n1 [Compound 339, (S)-N-(3-(1-((2-ethyl-2H-pyrazolo[3,4-b]pyrazin-6-yl)amino)ethyl)phenyl)-2-morpholinothiazole-5-carboxamide]
< 300 nM	< 300 nM	CCn1cc2ncc(N[C@@H](C)c3cc(NC(=O)c4cc(F)c(CN5CCN(C)CC5)c(Cl)c4)ccc3C)nc2n1 [Compound 518, (S)-3-chloro-N-(3-(1-((2-ethyl-2H-pyrazolo[3,4-b]pyrazin-6-yl)amino)ethyl)-4-methylphenyl)-5-fluoro-4-((4-methylpiperazin-1-yl)methyl)benzamide]
300 to 1000 nM	< 300 nM	CCOc1ccc(C(=O)Nc2cccc([C@H](C)Nc3cnc4cn(CC)nc4n3)c2)cn1 [Compound 286, (S)-6-ethoxy-N-(3-(1-((2-ethyl-2H-pyrazolo[3,4-b]pyrazin-6-yl)amino)ethyl)phenyl) nicotinamide]
< 300 nM	< 300 nM	CCn1cc2ncc(N[C@@H](C)c3cccc(NC(=O)c4ccc(C(F)(F)F)c(OC)c4)c3)nc2n1 [Compound 440, (S)-N-(3-(1-((2-ethyl-2H-pyrazolo[3,4-b]pyrazin-6-yl)amino)ethyl)phenyl)-3-methoxy-4-(trifluoromethyl) benzamide]
≥ 1000 nM	300 to 1000 nM	Cc1cncc(C(=O)Nc2cccc([C@H](C)Nc3cnc4c(c3)OCCN4)c2)c1 [Compound 45]
< 300 nM	< 300 nM	CC(C)c1cc(C(=O)Nc2cccc([C@H](C)Nc3cnc4cnn(C)c4n3)c2)on1 [Compound 145, (S)-3-isopropyl-N-(3-(1-((1-methyl-1H-pyrazolo[3,4-b]pyrazin-6-yl)amino)ethyl)phenyl)isoxazole-5-carboxamide]
< 300 nM	< 300 nM	Cc1n[nH]c2ncc(N[C@@H](C)c3cccc(NC(=O)c4ccc(OC(F)(F)F)nc4)c3)nc12 [Compound 536, (S)-N-(3-(1-((3-methyl-1H-pyrazolo[3,4-b]pyrazin-5-yl)amino)ethyl)phenyl)-6-(trifluoromethoxy)nicotinamide]
< 300 nM	< 300 nM	Cc1cc(C(=O)Nc2ccc(F)c([C@H](C)Nc3cnc4cnn(C)c4n3)c2)ccc1CN1CCN(C)CC1 [Compound 228, (S)-N-(4-fluoro-3-(1-((1-methyl-1H-pyrazolo[3,4-b]pyrazin-6-yl)amino)ethyl)phenyl)-3-methyl-4-((4-methylpiperazin-1-yl)methyl)benzamide]
< 300 nM	< 300 nM	C[C@H](Nc1cnc2cnn(C)c2n1)c1cccc(NC(=O)c2cnn(C(C)(C)C)c2)c1 [Compound 148, (S)-1-(tert-butyl)-N-(3-(1-((1-methyl-1H-pyrazolo[3,4-b]pyrazin-6-yl)amino)ethyl)phenyl)-1H-pyrazole-4-carboxamide]
< 300 nM	< 300 nM	Cc1ccc(C(=O)Nc2cccc([C@H](C)Nc3cnc4cnn(C)c4n3)c2)cc1F [Compound 188, (S)-3-fluoro-4-methyl-N-(3-(1-((1-methyl-1H-pyrazolo[3,4-b]pyrazin-6-yl)amino)ethyl)phenyl)benzamide]
< 300 nM	< 300 nM	Cc1cncc(C(=O)Nc2cccc([C@H](C)Nc3cnc4cn(-c5ccccc5)nc4n3)c2)c1 [Compound 434, (S)-5-methyl-N-(3-(1-((2-phenyl-2H-pyrazolo[3,4-b]pyrazin-6-yl)amino)ethyl)phenyl)nicotinamide]
≥ 1000 nM	< 300 nM	CCn1cc2ncc(N[C@@H](C)c3cccc(NC(=O)Cc4ccc(C(F)(F)F)cn4)c3)nc2n1 [Compound 688, (S)-N-(3-(1-((2-ethyl-2H-pyrazolo[3,4-b]pyrazin-6-yl)amino)ethyl)phenyl)-2-(5-(trifluoromethyl)pyridin-2-yl) acetamide]
< 300 nM	< 300 nM	Cc1cncc(C(=O)Nc2cccc([C@H](C)Nc3cnc4cnn(C)c4n3)c2)c1 [Compound 8, (S)-5-methyl-N-(3-(1-((1-methyl-1H-pyrazolo[3,4-b]pyrazin-6-yl)amino)ethyl)phenyl)nicotinamide]
